What is called EC50 is the concentration at which the effect is half-maximal.

This note sets out measurements from patent US20140100156A1 (SANOFI, priority 2012, published 2014).

Data set [1] is classed as physicochemical. Conditions: pH 4.5. The procedure:
Prior to the testing of solubility and stability of a peptide batch, its content was determined. Therefore, two parameters were investigated, its purity (HPLC-UV) and the amount of salt load of the batch (ion chromatography). Since synthesized peptides contain primarily trifluoroacetate anions, only anion chromatography was performed.
. Therefore, solutions from solid samples were prepared in different buffer systems with a concentration of 1.0 mg/mL compound based on the previously determined content. HPLC-UV was performed after 2 h of gentle agitation from the supernatant, which was obtained by 20 min of centrifugation at 4000 rpm.
This analysis also served as starting point (t0) for the stability testing.
Instrument: Agilent 1100, column: X-Bridge C18 3.5 μm 2.1×150 mm (Waters), eluent: A: H20+500 ppm TFA/B: Methanol, flow: 0.55 mL/min, gradient: 0-5 min: 10-60% B; 5-15 min: 60-99% B; detection: 214 nm.

For the next data set, the target named is T1, human GLP-1 receptor (Homo sapiens, UniProt P43220).
T1 construct: expressed in transfected cells; host or cells: HEK-293
The data set can be described thus: cAMP response (HTRF) of HEK-293 cells stably expressing human GLP-1 receptor. The format is cell-based. Conditions: Table 5, read-out: EC50 hGLP-1R. Background: In TR-FRET formats the signal depends on donor and acceptor labels being close together.

The target in the next data set is T2, human glucagon receptor (Homo sapiens, UniProt P47871).
T2 construct: expressed in transfected cells; host or cells: HEK-293
The data set is described as follows: cAMP response (HTRF) of HEK-293 cells stably expressing human glucagon receptor. The format is cell-based. Conditions: Table 5, read-out: EC50 hGlucagon-R.

T1 sequence (P43220 24-463): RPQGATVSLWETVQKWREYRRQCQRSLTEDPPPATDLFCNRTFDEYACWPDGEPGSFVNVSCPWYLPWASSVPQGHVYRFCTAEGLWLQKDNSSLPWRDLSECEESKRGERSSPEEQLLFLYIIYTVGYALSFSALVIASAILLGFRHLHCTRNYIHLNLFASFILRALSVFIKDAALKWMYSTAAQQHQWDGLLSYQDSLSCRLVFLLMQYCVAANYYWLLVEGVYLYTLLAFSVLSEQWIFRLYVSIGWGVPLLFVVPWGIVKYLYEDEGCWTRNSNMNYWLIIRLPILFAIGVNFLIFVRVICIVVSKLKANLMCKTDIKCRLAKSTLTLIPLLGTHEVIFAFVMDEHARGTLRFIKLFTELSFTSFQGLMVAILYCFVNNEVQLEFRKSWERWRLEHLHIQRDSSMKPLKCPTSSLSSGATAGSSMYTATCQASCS
T2 sequence (P47871 26-477): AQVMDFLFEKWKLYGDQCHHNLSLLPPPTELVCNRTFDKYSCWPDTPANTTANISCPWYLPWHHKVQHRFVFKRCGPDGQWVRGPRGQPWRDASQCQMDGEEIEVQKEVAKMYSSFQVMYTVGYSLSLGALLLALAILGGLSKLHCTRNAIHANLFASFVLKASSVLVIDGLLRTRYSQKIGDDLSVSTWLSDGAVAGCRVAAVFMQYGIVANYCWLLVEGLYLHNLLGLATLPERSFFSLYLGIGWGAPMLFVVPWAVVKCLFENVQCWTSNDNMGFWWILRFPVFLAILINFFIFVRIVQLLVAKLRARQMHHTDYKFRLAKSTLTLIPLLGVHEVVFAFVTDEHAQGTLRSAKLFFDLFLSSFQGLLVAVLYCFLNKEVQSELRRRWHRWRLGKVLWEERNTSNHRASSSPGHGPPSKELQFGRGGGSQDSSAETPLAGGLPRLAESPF
Procedure for human GLP-1 receptor: (§1) cAMP content of cells was determined using a kit from Cisbio Corp. (cat. no. 62AM4PEC) based on HTRF (Homogeneous Time Resolved Fluorescence). For preparation, cells were split into T175 culture flasks and grown overnight to near confluency in medium (DMEM/10% FBS). Medium was then removed and cells washed with PBS lacking calcium and magnesium, followed by proteinase treatment with accutase (Sigma-Aldrich cat. no. A6964). Detached cells were washed and resuspended in assay buffer (1×HBSS; 20 mM HEPES, 0.1% BSA, 2 mM IBMX) and cellular density determined. […] For measurement, 25 μl of test compound in assay buffer was added to the wells, followed by incubation for 30 minutes at room temperature.
Procedure for human glucagon receptor: as §1

As for `CCCCCCCCCCCCCCCC(=O)N[C@@H](CCC(=O)NCCCC[C@H](NC(=O)[C@H](C)NC(=O)[C@H](C)NC(=O)[C@H](CCC(N)=O)NC(=O)CNC(=O)[C@H](CCC(=O)O)NC(=O)[C@H](CC(C)C)NC(=O)[C@H](Cc1ccc(O)cc1)NC(=O)[C@H](CO)NC(=O)[C@H](CO)NC(=O)[C@@H](NC(=O)[C@H](CC(=O)O)NC(=O)[C@H](CO)NC(=O)[C@@H](NC(=O)[C@H](Cc1ccccc1)NC(=O)[C@@H](NC(=O)CNC(=O)[C@H](CCC(=O)O)NC(=O)[C@H](C)NC(=O)[C@@H](N)Cc1cnc[nH]1)[C@@H](C)O)[C@@H](C)O)C(C)C)C(=O)N[C@@H](CCC(=O)O)C(=O)N[C@@H](Cc1ccccc1)C(=O)N[C@H](C(=O)N[C@@H](C)C(=O)N[C@@H](Cc1c[nH]c2ccccc12)C(=O)N[C@@H](CC(C)C)C(=O)N[C@H](C(=O)N[C@@H](CCCNC(=N)N)C(=O)NCC(=O)N[C@@H](CCCNC(=N)N)C(=O)NCC(=O)O)C(C)C)[C@@H](C)CC)C(=O)O` [compound 195], in data set [1], the “Solubility pH4.5” value was determined as 0 mg/ml.

`CCCCCCCCCCCCCCCC(=O)N[C@@H](CCC(=O)NCCCC[C@H](NC(=O)[C@H](CCC(N)=O)NC(=O)[C@H](CCCCN)NC(=O)[C@H](CO)NC(=O)[C@H](CC(C)C)NC(=O)[C@H](CC(=O)O)NC(=O)[C@H](CO)NC(=O)[C@@H](NC(=O)[C@H](Cc1ccccc1)NC(=O)[C@@H](NC(=O)CNC(=O)[C@H](Cc1c[nH]cn1)NC(=O)[C@H](CO)NC(=O)[C@@H](N)Cc1c[nH]cn1)[C@@H](C)O)[C@@H](C)O)C(=O)N[C@@H](CCC(=O)O)C(=O)N[C@@H](CO)C(=O)N[C@@H](CCCNC(=N)N)C(=O)N[C@@H](CCCNC(=N)N)C(=O)N[C@@H](C)C(=O)N[C@@H](CCC(N)=O)C(=O)N[C@@H](CC(=O)O)C(=O)N[C@@H](Cc1ccccc1)C(=O)N[C@H](C(=O)N[C@@H](CCC(=O)O)C(=O)N[C@@H](Cc1c[nH]c2ccccc12)C(=O)N[C@@H](CC(C)C)C(=O)N[C@@H](CCCCN)C(=O)N[C@@H](C)C(=O)NCC(=O)NCC(=O)N1CCC[C@H]1C(=O)N[C@@H](CO)C(=O)N[C@@H](CO)C(=O)NCC(=O)N[C@@H](C)C(=O)N1CCC[C@H]1C(=O)N1CCC[C@H]1C(=O)N1CCC[C@H]1C(=O)N[C@@H](CO)C(N)=O)[C@@H](C)CC)C(=O)O` [compound 208]: the figures for the EC50 on human GLP-1 receptor and at human glucagon receptor were 2 pM and 1.3 pM, respectively.
